In US20260297085A1, “1 H-PYRROLO[2,3-B]PYRIDIN-4-YL]-2-OXOPYRROLIDINE-3-CARBONITRILE DERIVATIVES AS TYROSINE KINASE 2 (TYK2) INHIBITORS FOR THE TREATMENT OF INFLAMMATORY DISEASES” (BIOGEN MA INC., priority 2023, published 2026):

Assays:
[1] = molecular target: T1, human JAK3 kinase domain (JH1) (Homo sapiens, UniProt P52333); assay: JH1 biochemical assay for JAK3 (ADP-Glo kinase assay, recombinant JH1 catalytic domain, JAK3-974 peptide, 4 μM ATP); details: JH1 kinase domain, ADP-Glo
T1 construct: recombinantly generated catalytic kinase (also known as JH1) domain of human JAK1, JAK2, JAK3 and TYK2
T1 sequence (P52333 822-1111 limits assumed): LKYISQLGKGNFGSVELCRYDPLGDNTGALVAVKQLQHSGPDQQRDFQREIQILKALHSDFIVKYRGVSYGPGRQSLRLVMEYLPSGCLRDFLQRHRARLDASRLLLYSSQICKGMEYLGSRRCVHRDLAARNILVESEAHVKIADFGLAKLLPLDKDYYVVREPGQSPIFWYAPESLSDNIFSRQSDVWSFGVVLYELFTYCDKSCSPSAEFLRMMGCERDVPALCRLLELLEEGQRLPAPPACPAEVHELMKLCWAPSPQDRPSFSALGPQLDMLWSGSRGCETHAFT
Method in brief: (§1)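 Kinase 4 nM JAK1 / 0.2 nM JAK2 / 0.3 nM JAK3 / 2 nM TYK2; 50 μM peptide; 100 min. Unused ATP depleted, ADP→ATP, luciferase luminescence. 11-pt 3-fold series from 10 or 1 μM; normalized, 4PL fit → IC50.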

[2] = molecular target: JAK1 kinase activity on STAT3 in TF1 cells (Homo sapiens, UniProt P23458); assay: pSTAT3 cell assay (MSD; TF1 cells, 30 ng/mL IL-6 stimulation); assay type: cell-based; details: 30 ng/mL IL-6, 15 minutes
JAK1 kinase activity on STAT3 in TF1 cells, sequence (P23458 whole entry): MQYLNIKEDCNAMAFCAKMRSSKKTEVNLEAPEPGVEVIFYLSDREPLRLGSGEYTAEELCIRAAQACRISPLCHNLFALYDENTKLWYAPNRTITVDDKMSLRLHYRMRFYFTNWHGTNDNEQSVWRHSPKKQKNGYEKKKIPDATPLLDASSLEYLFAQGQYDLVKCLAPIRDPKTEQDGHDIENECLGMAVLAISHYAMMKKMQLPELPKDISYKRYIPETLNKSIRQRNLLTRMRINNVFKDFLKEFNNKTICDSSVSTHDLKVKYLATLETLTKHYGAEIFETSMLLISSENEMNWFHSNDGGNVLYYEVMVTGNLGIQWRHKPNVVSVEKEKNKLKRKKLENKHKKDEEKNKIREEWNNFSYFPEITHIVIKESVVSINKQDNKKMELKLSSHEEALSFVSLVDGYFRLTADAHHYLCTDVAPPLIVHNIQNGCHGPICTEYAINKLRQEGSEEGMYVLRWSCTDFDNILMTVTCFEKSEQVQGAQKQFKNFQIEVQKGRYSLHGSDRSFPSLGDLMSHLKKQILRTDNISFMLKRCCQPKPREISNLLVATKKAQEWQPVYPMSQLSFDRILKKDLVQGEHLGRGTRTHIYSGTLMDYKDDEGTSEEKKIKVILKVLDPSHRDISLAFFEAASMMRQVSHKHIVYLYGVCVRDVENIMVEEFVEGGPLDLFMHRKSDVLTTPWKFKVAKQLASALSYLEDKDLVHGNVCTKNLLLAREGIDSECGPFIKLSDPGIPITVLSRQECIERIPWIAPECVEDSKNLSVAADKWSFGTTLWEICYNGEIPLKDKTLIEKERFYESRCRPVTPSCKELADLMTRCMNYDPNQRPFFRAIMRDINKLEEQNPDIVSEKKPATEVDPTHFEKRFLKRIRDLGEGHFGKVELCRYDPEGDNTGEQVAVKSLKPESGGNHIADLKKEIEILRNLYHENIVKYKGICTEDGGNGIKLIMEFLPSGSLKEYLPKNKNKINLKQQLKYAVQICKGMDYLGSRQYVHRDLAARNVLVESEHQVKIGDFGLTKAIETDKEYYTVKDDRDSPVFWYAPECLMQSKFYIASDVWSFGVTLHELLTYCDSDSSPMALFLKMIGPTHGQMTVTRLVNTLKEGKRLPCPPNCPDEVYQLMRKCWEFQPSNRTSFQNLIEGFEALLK
Experimental: The inhibitory potency of compounds of the disclosure against the JAK1 kinase activity on STAT3 was evaluated using an MSD-platform plate-based assay format. TF1 cells natively expressing STAT3 and JAK1 were serum-starved to reduce background phosphorylation levels, then cells were treated with compounds of the disclosure for 1 hour with a 10-point four-fold dilution series starting at 10 μM. Cells were then stimulated with 30 ng/mL interleukin 6 (IL-6) for 15 minutes. Cells were lysed and pSTAT3 levels were quantitated using an MSD plate-based assay with anti-STAT3 antibodies. The data were normalized and the percent activity versus log concentration of compound was fitted with a 4-parameter logistic model to generate IC50 curves.

[3] = molecular target: Tyk2 kinase activity on STAT4 in NK92 cells (Homo sapiens, UniProt P29597); assay: pSTAT4 cell assay (MSD; NK92 cells, 30 ng/mL IL2 stimulation); assay type: cell-based; details: 30 ng/mL IL2, 15 minutes
Tyk2 kinase activity on STAT4 in NK92 cells, sequence (P29597 whole entry): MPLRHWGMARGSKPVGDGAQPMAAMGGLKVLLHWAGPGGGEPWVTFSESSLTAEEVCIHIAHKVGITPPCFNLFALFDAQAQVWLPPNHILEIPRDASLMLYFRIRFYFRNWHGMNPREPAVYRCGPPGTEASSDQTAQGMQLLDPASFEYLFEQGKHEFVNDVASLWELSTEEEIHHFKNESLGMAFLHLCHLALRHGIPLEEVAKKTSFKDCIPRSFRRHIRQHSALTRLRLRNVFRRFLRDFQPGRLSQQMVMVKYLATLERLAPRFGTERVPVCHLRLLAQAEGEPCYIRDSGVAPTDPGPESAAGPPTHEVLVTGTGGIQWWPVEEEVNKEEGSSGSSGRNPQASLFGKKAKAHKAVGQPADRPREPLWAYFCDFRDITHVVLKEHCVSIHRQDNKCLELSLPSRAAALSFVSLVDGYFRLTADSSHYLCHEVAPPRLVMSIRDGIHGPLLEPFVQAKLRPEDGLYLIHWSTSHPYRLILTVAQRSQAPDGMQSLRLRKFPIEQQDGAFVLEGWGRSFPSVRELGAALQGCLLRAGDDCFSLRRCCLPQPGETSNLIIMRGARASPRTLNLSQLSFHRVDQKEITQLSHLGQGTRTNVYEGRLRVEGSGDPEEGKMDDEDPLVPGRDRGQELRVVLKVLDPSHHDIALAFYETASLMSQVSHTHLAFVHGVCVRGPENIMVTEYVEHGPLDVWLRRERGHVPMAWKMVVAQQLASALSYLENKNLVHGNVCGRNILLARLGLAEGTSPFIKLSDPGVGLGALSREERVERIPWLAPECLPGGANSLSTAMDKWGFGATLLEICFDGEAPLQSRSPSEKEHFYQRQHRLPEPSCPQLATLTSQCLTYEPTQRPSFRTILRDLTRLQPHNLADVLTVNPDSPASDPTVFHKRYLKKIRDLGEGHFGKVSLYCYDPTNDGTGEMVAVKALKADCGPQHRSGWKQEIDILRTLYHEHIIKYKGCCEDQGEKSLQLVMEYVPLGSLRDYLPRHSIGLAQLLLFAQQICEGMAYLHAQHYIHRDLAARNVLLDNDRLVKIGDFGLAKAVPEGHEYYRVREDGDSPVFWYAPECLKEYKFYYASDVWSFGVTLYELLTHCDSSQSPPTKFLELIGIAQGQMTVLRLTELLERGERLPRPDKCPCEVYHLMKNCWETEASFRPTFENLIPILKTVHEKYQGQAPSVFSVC
Experimental: The inhibitory potency of compounds of the disclosure against the Tyk2 kinase activity on STAT4 was evaluated using an MSD-platform plate-based assay format. NK92 cells natively expressing STAT4 and Tyk2 were serum-starved to reduce background phosphorylation levels, then cells were treated compounds for 1 hr with a 10-point four-fold dilution series starting at 10 μM. Cells were then stimulated with 30 ng/mL IL2 for 15 minutes. Cells were lysed and […] levels were quantitated using an MSD plate-based assay with anti-STAT4 antibodies. The data were normalized and the percent activity versus log concentration of compound were fitted with a 4-parameter logistic model to generate to generate IC50 curves.

[4] = molecular target: T2, human TYK2 kinase domain (JH1) (Homo sapiens, UniProt P29597); assay: JH1 biochemical assay for TYK2 (ADP-Glo kinase assay, recombinant JH1 catalytic domain, JAK3-974 peptide, 10 μM ATP); details: JH1 kinase domain, ADP-Glo
T2 construct: recombinantly generated catalytic kinase (also known as JH1) domain of human JAK1, JAK2, JAK3 and TYK2
T2 sequence (P29597 897-1176 limits assumed): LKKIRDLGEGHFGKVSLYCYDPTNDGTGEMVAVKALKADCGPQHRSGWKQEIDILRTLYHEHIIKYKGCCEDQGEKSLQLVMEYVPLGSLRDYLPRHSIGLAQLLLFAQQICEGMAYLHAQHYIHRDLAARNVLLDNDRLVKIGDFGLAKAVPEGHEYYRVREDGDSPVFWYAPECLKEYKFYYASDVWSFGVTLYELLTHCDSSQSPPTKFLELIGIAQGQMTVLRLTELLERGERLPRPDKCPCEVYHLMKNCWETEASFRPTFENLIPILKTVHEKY
Method in brief: as §1

[5] = molecular target: T3, human JAK2 kinase domain (JH1) (Homo sapiens, UniProt O60674); assay: JH1 biochemical assay for JAK2 (ADP-Glo kinase assay, recombinant JH1 catalytic domain, JAK3-974 peptide, 15 μM ATP); details: JH1 kinase domain, ADP-Glo
T3 construct: recombinantly generated catalytic kinase (also known as JH1) domain of human JAK1, JAK2, JAK3 and TYK2
T3 sequence (O60674 849-1124 limits assumed): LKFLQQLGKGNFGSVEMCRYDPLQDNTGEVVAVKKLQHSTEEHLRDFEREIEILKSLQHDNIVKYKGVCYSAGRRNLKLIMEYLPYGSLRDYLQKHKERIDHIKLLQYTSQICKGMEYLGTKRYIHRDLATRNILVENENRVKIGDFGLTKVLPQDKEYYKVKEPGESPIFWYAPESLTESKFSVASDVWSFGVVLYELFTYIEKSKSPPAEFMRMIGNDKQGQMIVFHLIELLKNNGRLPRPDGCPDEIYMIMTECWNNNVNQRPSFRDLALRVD
Method in brief: as §1

[6] = molecular target: T4, human JAK1 kinase domain (JH1) (Homo sapiens, UniProt P23458); assay: JH1 biochemical assay for JAK1 (ADP-Glo kinase assay, recombinant JH1 catalytic domain, JAK3-342 peptide, 35 μM ATP); details: JH1 kinase domain, ADP-Glo
T4 construct: recombinantly generated catalytic kinase (also known as JH1) domain of human JAK1, JAK2, JAK3 and TYK2
T4 sequence (P23458 875-1153 limits assumed): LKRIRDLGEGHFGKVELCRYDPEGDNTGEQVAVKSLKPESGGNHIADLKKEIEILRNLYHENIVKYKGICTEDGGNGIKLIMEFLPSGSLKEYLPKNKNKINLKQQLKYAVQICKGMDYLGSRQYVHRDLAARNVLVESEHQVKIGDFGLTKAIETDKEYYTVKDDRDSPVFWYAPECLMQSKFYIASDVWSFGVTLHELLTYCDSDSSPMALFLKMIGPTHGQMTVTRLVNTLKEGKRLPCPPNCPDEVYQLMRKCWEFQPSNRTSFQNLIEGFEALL
Method in brief: as §1

[7] = molecular target: JAK2 kinase activity on STAT5 in TF1 cells (Homo sapiens, UniProt O60674); assay: pSTAT5 cell assay (MSD; TF1 cells, 30 ng/mL IL-3 stimulation); assay type: cell-based; details: 30 ng/mL IL-3, 15 minutes
JAK2 kinase activity on STAT5 in TF1 cells, sequence (O60674 whole entry): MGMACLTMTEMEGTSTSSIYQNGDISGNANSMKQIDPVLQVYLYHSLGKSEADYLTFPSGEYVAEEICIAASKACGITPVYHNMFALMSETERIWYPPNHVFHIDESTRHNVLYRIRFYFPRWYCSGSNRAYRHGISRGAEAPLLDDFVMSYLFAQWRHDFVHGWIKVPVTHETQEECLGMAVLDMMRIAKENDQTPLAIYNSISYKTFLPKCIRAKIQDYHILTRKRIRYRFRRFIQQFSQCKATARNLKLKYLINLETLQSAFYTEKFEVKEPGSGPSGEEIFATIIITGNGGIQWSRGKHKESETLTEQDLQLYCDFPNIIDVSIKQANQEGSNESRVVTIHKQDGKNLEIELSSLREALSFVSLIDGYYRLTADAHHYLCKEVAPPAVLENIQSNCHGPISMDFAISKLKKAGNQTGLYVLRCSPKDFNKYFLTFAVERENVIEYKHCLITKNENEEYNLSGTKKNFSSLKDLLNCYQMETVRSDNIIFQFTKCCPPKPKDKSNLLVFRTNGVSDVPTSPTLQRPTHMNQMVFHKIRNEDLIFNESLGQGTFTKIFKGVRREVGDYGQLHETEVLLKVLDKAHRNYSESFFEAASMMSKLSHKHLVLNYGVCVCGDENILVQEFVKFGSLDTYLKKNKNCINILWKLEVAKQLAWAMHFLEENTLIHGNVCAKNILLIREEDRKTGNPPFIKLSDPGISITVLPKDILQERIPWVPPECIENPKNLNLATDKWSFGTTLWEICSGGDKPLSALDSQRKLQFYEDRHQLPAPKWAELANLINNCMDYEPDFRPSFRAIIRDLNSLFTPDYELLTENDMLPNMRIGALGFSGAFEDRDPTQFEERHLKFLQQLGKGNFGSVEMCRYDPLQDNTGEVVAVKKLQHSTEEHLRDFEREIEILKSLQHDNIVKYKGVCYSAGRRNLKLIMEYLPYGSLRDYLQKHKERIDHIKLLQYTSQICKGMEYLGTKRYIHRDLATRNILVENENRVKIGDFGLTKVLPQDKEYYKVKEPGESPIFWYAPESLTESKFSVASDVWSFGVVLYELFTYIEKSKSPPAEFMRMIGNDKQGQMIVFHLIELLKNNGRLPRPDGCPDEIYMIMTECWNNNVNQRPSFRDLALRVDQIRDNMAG
Experimental: The inhibitory potency of compounds of the disclosure against the JAK2 kinase activity on STAT5 was evaluated using an MSD-platform plate-based assay format. TF1 cells natively expressing STAT5 and JAK2 were serum-starved to reduce background phosphorylation levels, then cells were treated with compounds of disclosure for 1 hour with a 10-point four-fold dilution series starting at 10 μM. Cells were then stimulated with 30 ng/mL IL-3 for 15 minutes. Cells were then lysed and pSTAT5 levels were quantitated using an MSD plate-based assay with anti-STAT5 antibodies. The data were normalized and the percent activity versus log concentration of compound was fitted with a 4-parameter logistic model to generate a curve and an IC50 value.

| IC50 [1] [nM] | IC50 [2] [nM] | IC50 [3] [nM] | IC50 [4] [nM] | IC50 [5] [nM] | IC50 [6] [nM] | IC50 [7] [nM] | SMILES |
| --- | --- | --- | --- | --- | --- | --- | --- |
| < 100 | 100 to 1000 | 20 to 50 | < 5 | < 100 | < 100 | 100 to 1000 | Cn1cc(-c2cc3c(N4CC[C@@](C#N)(C5CC5)C4=O)ccnc3[nH]2)cn1 [Example 4, (S)-3-cyclopropyl-1-(2-(1-methyl-1H-pyrazol-4-yl)-1H-pyrrolo[2,3-b]pyridin-4-yl)-2-oxopyrrolidine-3-carbonitrile] |
| 1000 to 5000 | 5000 to 10000 | > 100 | > 100 | 100 to 1000 | 1000 to 5000 | > 10000 | COc1cc(-c2cc3c(N4CC[C@](C#N)(C5CC5)C4=O)ccnc3[nH]2)ccn1 [Example 5, (R)-3-cyclopropyl-1-(2-(2-methoxypyridin-4-yl)-1H-pyrrolo[2,3-b]pyridin-4-yl)-2-oxopyrrolidine-3-carbonitrile] |
| 1000 to 5000 | > 10000 | > 100 | 50 to 100 | 1000 to 5000 | 1000 to 5000 | > 10000 | C[C@@H]1CN(c2ncnc3[nH]c(-c4cnn(C)c4)cc23)C(=O)[C@]1(C#N)C1CC1 [Example 6, (3R,4S)-3-cyclopropyl-4-methyl-1-(6-(1-methyl-1H-pyrazol-4-yl)-7H-pyrrolo[2,3-d]pyrimidin-4-yl)-2-oxopyrrolidine-3-carbonitrile] |
| 100 to 1000 | 1000 to 5000 | > 100 | 5 to 20 | 100 to 1000 | 100 to 1000 | 1000 to 5000 | COc1cc(-c2cc3c(N4CC[C@@](C#N)(C5CC5)C4=O)ccnn3c2)ccn1 [Example 8, (S)-3-cyclopropyl-1-(6-(2-methoxypyridin-4-yl)pyrrolo[1,2-b]pyridazin-4-yl)-2-oxopyrrolidine-3-carbonitrile] |
| 100 to 1000 | 1000 to 5000 | > 100 | 5 to 20 | 100 to 1000 | 100 to 1000 | 5000 to 10000 | Cn1cc(-c2cc3c(N4CC[C@@](C#N)(C5CC5)C4=O)ccnn3c2)cn1 [Example 9, (S)-3-cyclopropyl-1-(6-(1-methyl-1H-pyrazol-4-yl)pyrrolo[1,2-b]pyridazin-4-yl)-2-oxopyrrolidine-3-carbonitrile] |
| 100 to 1000 | 1000 to 5000 | > 100 | 5 to 20 | 100 to 1000 | 100 to 1000 | > 10000 | N#C[C@@]1(C2CC2)CCN(c2ccnn3cc(-c4cnn(C(F)F)c4)cc23)C1=O [Example 10, (S)-3-cyclopropyl-1-(6-(1-(difluoromethyl)-1H-pyrazol-4-yl)pyrrolo[1,2-b]pyridazin-4-yl)-2-oxopyrrolidine-3-carbonitrile] |
| 100 to 1000 | > 10000 | > 100 | 20 to 50 | 1000 to 5000 | 1000 to 5000 | > 10000 | Cc1cc(-c2cc3c(N4CC[C@@](C#N)(C5CC5)C4=O)ccnn3c2)on1 [Example 11, (S)-3-cyclopropyl-1-(6-(3-methylisoxazol-5-yl)pyrrolo[1,2-b]pyridazin-4-yl)-2-oxopyrrolidine-3-carbonitrile] |
| 100 to 1000 | 1000 to 5000 | > 100 | 5 to 20 | 100 to 1000 | 100 to 1000 | > 10000 | Cn1cc(-c2cc3c(N4CC[C@@](C#N)(C5CC5)C4=O)ccnn3c2)c(F)n1 [Example 12, (S)-3-cyclopropyl-1-(6-(3-fluoro-1-methyl-1H-pyrazol-4-yl)pyrrolo[1,2-b]pyridazin-4-yl)-2-oxopyrrolidine-3-carbonitrile] |
| 1000 to 5000 | > 10000 | > 100 | 50 to 100 | 1000 to 5000 | 1000 to 5000 | > 10000 | C[C@H]1CN(c2ccnn3cc(-c4cnn(C)c4)cc23)C(=O)[C@]1(C#N)C1CC1 [Example 22, (3R,4R)-3-cyclopropyl-4-methyl-1-(6-(1-methyl-1H-pyrazol-4-yl)pyrrolo[1,2-b]pyridazin-4-yl)-2-oxopyrrolidine-3-carbonitrile] |
| 100 to 1000 | 1000 to 5000 | 50 to 100 | 5 to 20 | 100 to 1000 | 100 to 1000 | 5000 to 10000 | CC[C@@H]1CN(c2ccnn3cc(-c4cnn(C)c4)cc23)C(=O)[C@]1(C#N)C1CC1 [Example 23, (3R,4S)-3-cyclopropyl-4-ethyl-1-(6-(1-methyl-1H-pyrazol-4-yl)pyrrolo[1,2-b]pyridazin-4-yl)-2-oxopyrrolidine-3-carbonitrile] |
| > 10000 | > 10000 | > 100 | 50 to 100 | 5000 to 10000 | 1000 to 5000 | > 10000 | C[C@@H]1CN(c2ccnn3c(F)c(-c4cnn(C)c4)cc23)C(=O)[C@]1(C#N)C1CC1 [Example 28, (3R,4S)-3-cyclopropyl-1-(7-fluoro-6-(1-methyl-1H-pyrazol-4-yl)pyrrolo[1,2-b]pyridazin-4-yl)-4-methyl-2-oxopyrrolidine-3-carbonitrile] |
| 100 to 1000 | 1000 to 5000 | 20 to 50 | < 5 | 100 to 1000 | 100 to 1000 | 5000 to 10000 | C[C@@H]1CN(c2ccnn3cc(-c4cnn(C)c4)cc23)C(=O)[C@]1(C#N)C1CC1 [Example 34, (3R,4S)-3-cyclopropyl-4-methyl-1-(6-(1-methyl-1H-pyrazol-4-yl)pyrrolo[1,2-b]pyridazin-4-yl)-2-oxopyrrolidine-3-carbonitrile] |
| 100 to 1000 | 1000 to 5000 | 20 to 50 | < 5 | 100 to 1000 | 100 to 1000 | 5000 to 10000 | C[C@@H]1CN(c2ccnn3cc(-c4cnn(C(F)F)c4)cc23)C(=O)[C@]1(C#N)C1CC1 [Example 35, (3R,4S)-3-cyclopropyl-1-(6-(1-(difluoromethyl)-1H-pyrazol-4-yl)pyrrolo[1,2-b]pyridazin-4-yl)-4-methyl-2-oxopyrrolidine-3-carbonitrile] |
| 100 to 1000 | 1000 to 5000 | > 100 | 5 to 20 | 100 to 1000 | 100 to 1000 | 5000 to 10000 | COc1ccc(-c2cc3c(N4C[C@@H](C)[C@@](C#N)(C5CC5)C4=O)ccnn3c2)cn1 [Example 48, (3R,4S)-3-cyclopropyl-1-(6-(6-methoxypyridin-3-yl)pyrrolo[1,2-b]pyridazin-4-yl)-4-methyl-2-oxopyrrolidine-3-carbonitrile] |
| 100 to 1000 | 1000 to 5000 | 50 to 100 | 5 to 20 | 100 to 1000 | < 100 | > 10000 | C[C@@H]1CN(c2ccnn3cc(-c4ccc5cncn5c4)cc23)C(=O)[C@]1(C#N)C1CC1 [Example 51, (3R,4S)-3-cyclopropyl-1-(6-(imidazo[1,5-a]pyridin-6-yl)pyrrolo[1,2-b]pyridazin-4-yl)-4-methyl-2-oxopyrrolidine-3-carbonitrile] |
| 100 to 1000 | 5000 to 10000 | > 100 | 5 to 20 | 100 to 1000 | 100 to 1000 | > 10000 | C[C@@H]1CN(c2ccnn3cc(-c4ccc(S(C)(=O)=O)nc4)cc23)C(=O)[C@]1(C#N)C1CC1 [Example 52, (3R,4S)-3-cyclopropyl-4-methyl-1-(6-(6-(methylsulfonyl)pyridin-3-yl)pyrrolo[1,2-b]pyridazin-4-yl)-2-oxopyrrolidine-3-carbonitrile] |
